Measured values taken from the NIST ThermoML archive (doi:10.1016/j.fluid.2011.04.001).
Numbers after ± are expanded uncertainties.

Experiments:
[1] = xn = mol fraction of the nth substance listed; details: 298.15 K, 101 kPa, Liquid, Vibrating tube method
[2] = 298.15 K; 101.33 kPa; Liquid; Vibrating tube method
[3] = refractive index (Na D-line) (dimensionless); details: 298.15 K; 101.33 kPa; Liquid; Standard Abbe refractometry

Which mass density ([1]; x2 = 0.123) does the source give for `CCOS(=O)(=O)[O-].CCn1cc[n+](C)c1` [1-ethyl-3-methylimidazolium ethyl sulfate] + Cc1ccc(C)cc1 here?
Its mass density is 1210.97 ± 1.5 kg/m3.

Which results are given for `CCOS(=O)(=O)[O-].CCn1cc[n+](C)c1` [1-ethyl-3-methylimidazolium ethyl sulfate]?
mass density [2]: 1237.23 ± 0.43 kg/m3; refractive index [3]: 1.50591 ± 0.0004

Which mass density ([1]; x2 = 0.015) does the source give for `CCOS(=O)(=O)[O-].CCn1cc[n+](C)c1` [1-ethyl-3-methylimidazolium ethyl sulfate] + CCCCCC here?
The mass density was 1234.45 ± 1.5 kg/m3.

For `CCOS(=O)(=O)[O-].CCn1cc[n+](C)c1` [1-ethyl-3-methylimidazolium ethyl sulfate] + Cc1ccccc1C, which mass density ([1]; x2 = 0.142) is on record?
The mass density was 1207.74 ± 1.5 kg/m3.

For `CCOS(=O)(=O)[O-].CCn1cc[n+](C)c1` [1-ethyl-3-methylimidazolium ethyl sulfate] + Cc1cccc(C)c1, which mass density ([1]; x2 = 0.119) is on record?
Its mass density is 1212.69 ± 1.5 kg/m3.
